The conditions of data set [1]: after oral administration; cited from earlier work.
Data set [2] can be described thus: Hydrolysis in 10% rabbit liver homogenate. The class given is in vitro ADME. The settings on record: 10% rabbit liver homogenate (9,000 g supernatant), pH 7.4, 37° C., read-out: t1/2 of hydrolysis in rabbit liver homogenate. As for the experimental part:
(§1) The HPLC system used consisted of a Beckman System Gold Programmable Solvent Module 126, Beckman System Gold Detector Module 166 with variable wavelength UV detector (set at 254 nm) and a Beckman System Gold Autosampler 507e. Separations were accomplished on a Purospher RP-18 reverse-phase column, 12.5 cm×4.0 mm i.d., 5 μm (Merck, Darmstadt, Germany). The chromatographic conditions were as follows: injection volume, 50 μl; column temperature, 40° C.; flow rate, gradient/isocratic at 1.0 ml/min. The mobile phase consisted of various proportions of methanol/water mixture (90:10) and a citrate/phosphate buffer pH 2.2.
The rabbit liver was homogenized with approximately four equivalent volumes of isotonic phosphate buffer at pH 7.4 using an X-1020 homogenizer (Ystral, Germany). The homogenate was centrifuged for 90 min at 9,000 g and 4° C. with a Biofuge 28 RS centrifuge (Heraeus Instruments, Germany). The supernatant was stored at −80° C. until analysis. An appropriate amount was dissolved in one volume of preheated 20% liver homogenate. The solution was then incubated at 37° C. At appropriate time intervals, samples (300 μl) were withdrawn. Samples were pretreated with 300 μl of methanol to terminate enzymatic activity. […] The residue was dissolved in 400 μl of the mobile phase buffer and analyzed by HPLC.

Data set [3] is described as follows: Hydrolysis in aqueous solution (chemical hydrolysis in phosphate buffer). The class given is physicochemical. As to conditions: aqueous phosphate buffer 0.16 M; for half-life: read-out: Pseudo-first order half-time (t1/2) for chemical hydrolysis (converted). The procedure: as §1
The rate of chemical hydrolysis was determined in aqueous phosphate buffer solution (0.16 M) at pH 7.4, 5.0, and 1.2 at 37° C. An appropriate amount was dissolved in 10 ml of preheated buffer and the solution was placed in a thermostatically controlled water bath at 37° C. At appropriate time intervals, samples were taken and analyzed for the remaining codrug by HPLC. Pseudo-first order half-time (t1/2) for the hydrolysis was calculated from the slope of the linear portion of the plotted logarithm of remaining codrug vs. time.

On to `CCN(CC)C(=O)/C(C#N)=C/c1cc(O)c(O)c([N+](=O)[O-])c1` [entacapone, (E)2-cyano-N,N-diethyl-3-(3,4-dihydroxy-5-nitrophenyl)propenamide], for which, in data set [1], the bioavailability of entacapone is listed as 29-46%.

For `CCN(CC)C(=O)/C(C#N)=C/c1cc(OC(=O)N[C@@H](Cc2ccc(O)c(O)c2)C(=O)OC)c(O)c([N+](=O)[O-])c1` [Example 1, (S)-2-{5-[(E)-2-cyano-2-(diethylcarbamoyl)vinyl]-2-hydroxy-3-nitrophenoxycarbonylamino}-3-(3,4-dihydroxyphenyl)propionic acid methyl ester], the half-life in data set [2] was 7 min; in data set [3] (pH 5.0, 37° C.) it was 1.4 h; in data set [3] (pH 7.4, 37° C.), 1.1 h. The “Pseudo-first order half-time (t1/2) for chemical hydrolysis” value in data set [3] (pH 1.2, 37° C.) amounted to 12.1 h.

(Values after patent US20050059608A1, “Pharmaceutical compounds” (priority 2001, published 2005).)
